{"source": "patent US6395896B2", "about": "“Pyridazine derivatives, manufacturing method and related composition” (Shiseido Co., Ltd., priority 1999, dated 2002)", "key": {"skin (antebrachium)": {"test_system": "skin (antebrachium)", "assay": "Skin irritation test: occlusive patch test", "format": "in vivo, human", "details": "10 wt % ultraviolet absorbent, occlusive patch 24 hours", "experimental": "Sample (10 wt % of ultraviolet absorbent) is the same as test example 2. An occlusive patch test was carried out in the antebrachium part of healthy men and women subjects by finchamber for 24 hours. Each group was twenty subjects. [table] Each of the calculated average scores was evaluated by the following evaluation standard. A: average score is 0. B: average score is over 0 and less than 1. C: average score is 1 or more and less than 2. D: average score is 2 or more."}, "[1]": {"assay": "Colorant stabilization effect (photostabilizer, sunlight exposure)", "set-up": "key to Sunlight exposure (80 MJ) Appearance: A: No change; B: No almost change; C: Yes change; key to Sunlight exposure (80 MJ) ΔE: ΔE color difference (Lab) vs. color before sunlight exposure", "summary_of_the_method": "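Samples exposed to sunlight (around 80 MJ); appearance change judged visually. Color difference (ΔE) measured by spectrophotometer in Lab coordinates, calculated against the same sample's color before exposure.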"}, "[2]": {"details": "Blue No. 1 0.00001 wt %, photostabilizer 0.05 wt %"}, "[3]": {"details": "Blue No. 1 0.00001 wt %, photostabilizer 0.1 wt %"}, "[4]": {"details": "Blue No. 1 0.00001 wt %, photostabilizer 0.3 wt %"}, "[5]": {"details": "Blue No. 1 0.0001 wt %, photostabilizer 0.03 wt %"}, "[6]": {"details": "Blue No. 1 0.0001 wt %, photostabilizer 0.05 wt %"}, "[7]": {"details": "Blue No. 1 0.0001 wt %, photostabilizer 0.1 wt %"}, "[8]": {"details": "Green No. 3 0.00001 wt %, photostabilizer 0.03 wt %"}, "[9]": {"details": "Green No. 3 0.00001 wt %, photostabilizer 0.1 wt %"}, "[10]": {"details": "Green No. 3 0.00001 wt %, photostabilizer 0.3 wt %"}, "[11]": {"details": "Green No. 3 0.0001 wt %, photostabilizer 0.02 wt %"}, "[12]": {"details": "Green No. 3 0.0001 wt %, photostabilizer 0.05 wt %"}, "[13]": {"details": "Green No. 3 0.0001 wt %, photostabilizer 0.1 wt %"}, "[14]": {"details": "Red No. 106 0.00001 wt % + Yellow No. 5 0.0001 wt %, photostabilizer 0.03 wt %"}, "[15]": {"details": "Red No. 106 0.00001 wt % + Yellow No. 5 0.0001 wt %, photostabilizer 0.05 wt %"}, "[16]": {"details": "Red No. 106 0.00001 wt % + Yellow No. 5 0.0001 wt %, photostabilizer 0.3 wt %"}, "[17]": {"details": "Red No. 106 0.00001 wt % + Yellow No. 203 0.0001 wt %, photostabilizer 0.05 wt %"}, "[18]": {"details": "Red No. 106 0.00001 wt % + Yellow No. 203 0.0001 wt %, photostabilizer 0.1 wt %"}, "[19]": {"details": "Red No. 106 0.00001 wt % + Yellow No. 203 0.0001 wt %, photostabilizer 0.3 wt %"}, "[20]": {"details": "Red No. 106 0.00001 wt %, photostabilizer 0.05 wt %"}, "[21]": {"details": "Red No. 106 0.00001 wt %, photostabilizer 0.1 wt %"}, "[22]": {"details": "Red No. 106 0.00001 wt %, photostabilizer 0.3 wt %"}, "[23]": {"details": "Red No. 106 0.0001 wt %, photostabilizer 0.03 wt %"}, "[24]": {"details": "Red No. 106 0.0001 wt %, photostabilizer 0.05 wt %"}, "[25]": {"details": "Red No. 106 0.0001 wt %, photostabilizer 0.1 wt %"}, "[26]": {"details": "Red No. 213 0.00001 wt % + Blue No. 1 0.00001 wt %, photostabilizer 0.03 wt %"}, "[27]": {"details": "Red No. 213 0.00001 wt % + Blue No. 1 0.00001 wt %, photostabilizer 0.05 wt %"}, "[28]": {"details": "Red No. 213 0.00001 wt % + Blue No. 1 0.00001 wt %, photostabilizer 0.1 wt %"}, "[29]": {"details": "Red No. 213 0.00001 wt %, photostabilizer 0.03 wt %"}, "[30]": {"details": "Red No. 213 0.00001 wt %, photostabilizer 0.1 wt %"}, "[31]": {"details": "Red No. 213 0.00001 wt %, photostabilizer 0.3 wt %"}, "[32]": {"details": "Red No. 213 0.0001 wt %, photostabilizer 0.03 wt %"}, "[33]": {"details": "Red No. 213 0.0001 wt %, photostabilizer 0.05 wt %"}, "[34]": {"details": "Red No. 213 0.0001 wt %, photostabilizer 0.1 wt %"}, "[35]": {"details": "Red No. 227 0.00001 wt %, photostabilizer 0.05 wt %"}, "[36]": {"details": "Red No. 227 0.00001 wt %, photostabilizer 0.1 wt %"}, "[37]": {"details": "Red No. 227 0.00001 wt %, photostabilizer 0.3 wt %"}}, "data": [{"molecule": "Oc1nncc(N2CCOCC2)c1N1CCOCC1", "note": "[4,5-Dimorpholino-3-hydroxypyridazine]", "values": [{"measurement": "Judgment (patch test, average skin reaction score)", "setting": "skin (antebrachium); Cream", "result": "A (average score is 0.)"}, {"measurement": "Judgment (patch test, average skin reaction score)", "setting": "skin (antebrachium); Lotion", "result": "A (average score is 0.)"}, {"measurement": "Sunlight exposure (80 MJ) Appearance", "setting": "[1]; [2]", "result": "A"}, {"measurement": "Sunlight exposure (80 MJ) ΔE", "setting": "[1]; [2]", "result": 1.00}, {"measurement": "Sunlight exposure (80 MJ) Appearance", "setting": "[1]; [3]", "result": "A"}, {"measurement": "Sunlight exposure (80 MJ) ΔE", "setting": "[1]; [3]", "result": 0.62}, {"measurement": "Sunlight exposure (80 MJ) Appearance", "setting": "[1]; [4]", "result": "A"}, {"measurement": "Sunlight exposure (80 MJ) ΔE", "setting": "[1]; [4]", "result": 0.25}, {"measurement": "Sunlight exposure (80 MJ) Appearance", "setting": "[1]; [5]", "result": "A"}, {"measurement": "Sunlight exposure (80 MJ) ΔE", "setting": "[1]; [5]", "result": 1.25}, {"measurement": "Sunlight exposure (80 MJ) Appearance", "setting": "[1]; [6]", "result": "A"}, {"measurement": "Sunlight exposure (80 MJ) ΔE", "setting": "[1]; [6]", "result": 1.11}, {"measurement": "Sunlight exposure (80 MJ) Appearance", "setting": "[1]; [7]", "result": "A"}, {"measurement": "Sunlight exposure (80 MJ) ΔE", "setting": "[1]; [7]", "result": 0.70}, {"measurement": "Sunlight exposure (80 MJ) Appearance", "setting": "[1]; [8]", "result": "A"}, {"measurement": "Sunlight exposure (80 MJ) ΔE", "setting": "[1]; [8]", "result": 0.56}, {"measurement": "Sunlight exposure (80 MJ) Appearance", "setting": "[1]; [9]", "result": "A"}, {"measurement": "Sunlight exposure (80 MJ) ΔE", "setting": "[1]; [9]", "result": 0.08}, {"measurement": "Sunlight exposure (80 MJ) Appearance", "setting": "[1]; [10]", "result": "A"}, {"measurement": "Sunlight exposure (80 MJ) ΔE", "setting": "[1]; [10]", "result": 0.02}, {"measurement": "Sunlight exposure (80 MJ) Appearance", "setting": "[1]; [11]", "result": "A"}, {"measurement": "Sunlight exposure (80 MJ) ΔE", "setting": "[1]; [11]", "result": 0.75}, {"measurement": "Sunlight exposure (80 MJ) Appearance", "setting": "[1]; [12]", "result": "A"}, {"measurement": "Sunlight exposure (80 MJ) ΔE", "setting": "[1]; [12]", "result": 0.31}, {"measurement": "Sunlight exposure (80 MJ) Appearance", "setting": "[1]; [13]", "result": "A"}, {"measurement": "Sunlight exposure (80 MJ) ΔE", "setting": "[1]; [13]", "result": 0.06}, {"measurement": "Sunlight exposure (80 MJ) Appearance", "setting": "[1]; [14]", "result": "A"}, {"measurement": "Sunlight exposure (80 MJ) ΔE", "setting": "[1]; [14]", "result": 0.97}, {"measurement": "Sunlight exposure (80 MJ) Appearance", "setting": "[1]; [15]", "result": "A"}, {"measurement": "Sunlight exposure (80 MJ) ΔE", "setting": "[1]; [15]", "result": 0.55}, {"measurement": "Sunlight exposure (80 MJ) Appearance", "setting": "[1]; [16]", "result": "A"}, {"measurement": "Sunlight exposure (80 MJ) ΔE", "setting": "[1]; [16]", "result": 0.12}, {"measurement": "Sunlight exposure (80 MJ) Appearance", "setting": "[1]; [17]", "result": "A"}, {"measurement": "Sunlight exposure (80 MJ) ΔE", "setting": "[1]; [17]", "result": 0.77}, {"measurement": "Sunlight exposure (80 MJ) Appearance", "setting": "[1]; [18]", "result": "A"}, {"measurement": "Sunlight exposure (80 MJ) ΔE", "setting": "[1]; [18]", "result": 0.25}, {"measurement": "Sunlight exposure (80 MJ) Appearance", "setting": "[1]; [19]", "result": "A"}, {"measurement": "Sunlight exposure (80 MJ) ΔE", "setting": "[1]; [19]", "result": 0.11}, {"measurement": "Sunlight exposure (80 MJ) Appearance", "setting": "[1]; [20]", "result": "A"}, {"measurement": "Sunlight exposure (80 MJ) ΔE", "setting": "[1]; [20]", "result": 1.01}, {"measurement": "Sunlight exposure (80 MJ) Appearance", "setting": "[1]; [21]", "result": "A"}, {"measurement": "Sunlight exposure (80 MJ) ΔE", "setting": "[1]; [21]", "result": 0.55}, {"measurement": "Sunlight exposure (80 MJ) Appearance", "setting": "[1]; [22]", "result": "A"}, {"measurement": "Sunlight exposure (80 MJ) ΔE", "setting": "[1]; [22]", "result": 0.12}, {"measurement": "Sunlight exposure (80 MJ) Appearance", "setting": "[1]; [23]", "result": "A"}, {"measurement": "Sunlight exposure (80 MJ) ΔE", "setting": "[1]; [23]", "result": 0.95}, {"measurement": "Sunlight exposure (80 MJ) Appearance", "setting": "[1]; [24]", "result": "A"}, {"measurement": "Sunlight exposure (80 MJ) ΔE", "setting": "[1]; [24]", "result": 0.82}, {"measurement": "Sunlight exposure (80 MJ) Appearance", "setting": "[1]; [25]", "result": "A"}, {"measurement": "Sunlight exposure (80 MJ) ΔE", "setting": "[1]; [25]", "result": 0.43}, {"measurement": "Sunlight exposure (80 MJ) Appearance", "setting": "[1]; [26]", "result": "A"}, {"measurement": "Sunlight exposure (80 MJ) ΔE", "setting": "[1]; [26]", "result": 1.21}, {"measurement": "Sunlight exposure (80 MJ) Appearance", "setting": "[1]; [27]", "result": "A"}, {"measurement": "Sunlight exposure (80 MJ) ΔE", "setting": "[1]; [27]", "result": 0.97}, {"measurement": "Sunlight exposure (80 MJ) Appearance", "setting": "[1]; [28]", "result": "A"}, {"measurement": "Sunlight exposure (80 MJ) ΔE", "setting": "[1]; [28]", "result": 0.73}, {"measurement": "Sunlight exposure (80 MJ) Appearance", "setting": "[1]; [29]", "result": "B"}, {"measurement": "Sunlight exposure (80 MJ) ΔE", "setting": "[1]; [29]", "result": 1.24}, {"measurement": "Sunlight exposure (80 MJ) Appearance", "setting": "[1]; [30]", "result": "A"}, {"measurement": "Sunlight exposure (80 MJ) ΔE", "setting": "[1]; [30]", "result": 0.45}, {"measurement": "Sunlight exposure (80 MJ) Appearance", "setting": "[1]; [31]", "result": "A"}, {"measurement": "Sunlight exposure (80 MJ) ΔE", "setting": "[1]; [31]", "result": 0.12}, {"measurement": "Sunlight exposure (80 MJ) Appearance", "setting": "[1]; [32]", "result": "B"}, {"measurement": "Sunlight exposure (80 MJ) ΔE", "setting": "[1]; [32]", "result": 1.11}, {"measurement": "Sunlight exposure (80 MJ) Appearance", "setting": "[1]; [33]", "result": "A"}, {"measurement": "Sunlight exposure (80 MJ) ΔE", "setting": "[1]; [33]", "result": 0.78}, {"measurement": "Sunlight exposure (80 MJ) Appearance", "setting": "[1]; [34]", "result": "A"}, {"measurement": "Sunlight exposure (80 MJ) ΔE", "setting": "[1]; [34]", "result": 0.32}, {"measurement": "Sunlight exposure (80 MJ) Appearance", "setting": "[1]; [35]", "result": "A"}, {"measurement": "Sunlight exposure (80 MJ) ΔE", "setting": "[1]; [35]", "result": 0.69}, {"measurement": "Sunlight exposure (80 MJ) Appearance", "setting": "[1]; [36]", "result": "A"}, {"measurement": "Sunlight exposure (80 MJ) ΔE", "setting": "[1]; [36]", "result": 0.32}, {"measurement": "Sunlight exposure (80 MJ) Appearance", "setting": "[1]; [37]", "result": "A"}, {"measurement": "Sunlight exposure (80 MJ) ΔE", "setting": "[1]; [37]", "result": 0.11}]}]}
